How the values were obtained:
Type in all cases: biochemical
[1] = target: T1, PI3K γ (Homo sapiens, UniProt P48736); assay: In vitro IC50, PI3K γ
T1 construct: purchased Sigma
Text: (§1) An exemplary system is PI 3-Kinase (human) HTRF™ Assay from Upstate.

[2] = target: T2, PI3K α (Homo sapiens, UniProt P42336); assay: In vitro IC50, PI3K α
T2 construct: purchased Upstate
Text: as §1

[3] = target: PI3K β (Homo sapiens, UniProt P42338); assay: In vitro IC50, PI3K β
Text: as §1

[4] = target: PI3K δ (Homo sapiens, UniProt O00329); assay: In vitro IC50, PI3K δ; set-up: purchased Upstate
Text: as §1

T1 sequence (P48736 whole entry): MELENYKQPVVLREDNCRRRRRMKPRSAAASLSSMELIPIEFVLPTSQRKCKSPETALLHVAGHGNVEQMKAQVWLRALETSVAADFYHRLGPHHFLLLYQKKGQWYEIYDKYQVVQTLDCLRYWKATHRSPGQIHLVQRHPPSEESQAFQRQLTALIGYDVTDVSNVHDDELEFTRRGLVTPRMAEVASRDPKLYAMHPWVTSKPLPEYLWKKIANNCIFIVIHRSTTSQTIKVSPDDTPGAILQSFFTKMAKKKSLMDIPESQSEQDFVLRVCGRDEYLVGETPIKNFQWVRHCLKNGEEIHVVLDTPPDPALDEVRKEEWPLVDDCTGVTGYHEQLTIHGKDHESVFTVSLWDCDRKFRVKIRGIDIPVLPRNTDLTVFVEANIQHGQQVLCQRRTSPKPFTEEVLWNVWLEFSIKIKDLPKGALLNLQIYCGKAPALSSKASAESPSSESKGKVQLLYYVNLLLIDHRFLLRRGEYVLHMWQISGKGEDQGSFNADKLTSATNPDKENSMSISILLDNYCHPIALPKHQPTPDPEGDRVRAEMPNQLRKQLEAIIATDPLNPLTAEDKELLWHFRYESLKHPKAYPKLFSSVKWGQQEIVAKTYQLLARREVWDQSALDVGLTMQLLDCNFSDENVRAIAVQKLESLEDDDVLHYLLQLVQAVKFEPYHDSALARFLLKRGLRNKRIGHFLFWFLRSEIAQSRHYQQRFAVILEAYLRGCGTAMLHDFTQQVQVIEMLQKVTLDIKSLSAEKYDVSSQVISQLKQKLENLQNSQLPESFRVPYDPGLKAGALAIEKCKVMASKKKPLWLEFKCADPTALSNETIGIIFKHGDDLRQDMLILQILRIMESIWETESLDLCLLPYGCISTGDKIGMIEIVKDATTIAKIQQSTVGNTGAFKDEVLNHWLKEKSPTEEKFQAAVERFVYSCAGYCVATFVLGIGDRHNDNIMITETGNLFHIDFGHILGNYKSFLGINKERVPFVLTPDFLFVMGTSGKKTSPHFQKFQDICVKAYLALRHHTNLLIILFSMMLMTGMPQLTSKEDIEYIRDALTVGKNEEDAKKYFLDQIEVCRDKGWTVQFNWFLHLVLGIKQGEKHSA
T2 sequence (P42336 whole entry): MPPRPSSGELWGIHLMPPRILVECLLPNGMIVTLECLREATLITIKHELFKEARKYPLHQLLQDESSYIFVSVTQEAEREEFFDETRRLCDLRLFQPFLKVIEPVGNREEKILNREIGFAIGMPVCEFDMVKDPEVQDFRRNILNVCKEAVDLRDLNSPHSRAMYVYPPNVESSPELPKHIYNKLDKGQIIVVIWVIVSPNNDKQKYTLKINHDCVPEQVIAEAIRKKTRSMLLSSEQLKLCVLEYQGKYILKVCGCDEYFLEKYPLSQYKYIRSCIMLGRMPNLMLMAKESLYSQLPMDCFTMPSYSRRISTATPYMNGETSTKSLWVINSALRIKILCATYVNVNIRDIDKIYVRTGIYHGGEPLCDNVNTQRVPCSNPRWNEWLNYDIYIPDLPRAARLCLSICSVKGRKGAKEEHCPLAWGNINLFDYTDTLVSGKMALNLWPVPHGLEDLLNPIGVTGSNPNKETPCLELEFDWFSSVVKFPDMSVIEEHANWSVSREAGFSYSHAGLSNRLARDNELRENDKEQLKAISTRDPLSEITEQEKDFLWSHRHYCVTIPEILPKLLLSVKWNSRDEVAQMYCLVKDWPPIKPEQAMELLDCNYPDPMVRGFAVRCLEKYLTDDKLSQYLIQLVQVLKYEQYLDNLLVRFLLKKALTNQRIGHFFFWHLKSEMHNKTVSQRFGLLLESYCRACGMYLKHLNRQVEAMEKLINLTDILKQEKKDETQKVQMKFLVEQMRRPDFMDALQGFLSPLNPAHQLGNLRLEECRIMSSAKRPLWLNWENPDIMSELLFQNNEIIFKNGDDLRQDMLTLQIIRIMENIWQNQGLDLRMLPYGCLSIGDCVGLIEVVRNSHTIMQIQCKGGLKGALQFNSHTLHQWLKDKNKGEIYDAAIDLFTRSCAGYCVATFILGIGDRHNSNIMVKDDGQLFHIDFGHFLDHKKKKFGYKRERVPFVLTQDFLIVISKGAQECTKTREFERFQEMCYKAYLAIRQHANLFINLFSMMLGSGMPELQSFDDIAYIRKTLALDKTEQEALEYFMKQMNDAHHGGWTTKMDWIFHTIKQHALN
T2 sequence (P27986 whole entry partner): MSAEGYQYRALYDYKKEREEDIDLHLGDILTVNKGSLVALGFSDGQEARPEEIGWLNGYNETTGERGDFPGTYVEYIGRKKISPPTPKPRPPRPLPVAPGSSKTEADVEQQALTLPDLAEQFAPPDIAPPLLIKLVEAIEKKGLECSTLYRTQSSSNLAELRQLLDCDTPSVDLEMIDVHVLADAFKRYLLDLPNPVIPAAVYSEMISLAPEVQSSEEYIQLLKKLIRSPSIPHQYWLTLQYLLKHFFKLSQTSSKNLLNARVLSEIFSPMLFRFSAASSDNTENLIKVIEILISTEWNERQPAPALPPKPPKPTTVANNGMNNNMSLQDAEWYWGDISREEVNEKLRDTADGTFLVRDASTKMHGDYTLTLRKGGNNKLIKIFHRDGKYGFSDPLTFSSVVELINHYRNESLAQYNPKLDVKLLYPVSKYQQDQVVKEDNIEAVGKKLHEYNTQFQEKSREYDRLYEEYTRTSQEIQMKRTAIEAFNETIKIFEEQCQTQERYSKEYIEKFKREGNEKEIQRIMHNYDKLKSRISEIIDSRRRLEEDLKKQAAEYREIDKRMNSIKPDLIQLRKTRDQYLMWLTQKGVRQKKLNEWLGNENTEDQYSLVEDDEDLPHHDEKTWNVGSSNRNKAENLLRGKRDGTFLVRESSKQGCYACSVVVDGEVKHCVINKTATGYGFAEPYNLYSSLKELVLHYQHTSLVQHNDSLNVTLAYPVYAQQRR
PI3K β, sequence (P42338 whole entry): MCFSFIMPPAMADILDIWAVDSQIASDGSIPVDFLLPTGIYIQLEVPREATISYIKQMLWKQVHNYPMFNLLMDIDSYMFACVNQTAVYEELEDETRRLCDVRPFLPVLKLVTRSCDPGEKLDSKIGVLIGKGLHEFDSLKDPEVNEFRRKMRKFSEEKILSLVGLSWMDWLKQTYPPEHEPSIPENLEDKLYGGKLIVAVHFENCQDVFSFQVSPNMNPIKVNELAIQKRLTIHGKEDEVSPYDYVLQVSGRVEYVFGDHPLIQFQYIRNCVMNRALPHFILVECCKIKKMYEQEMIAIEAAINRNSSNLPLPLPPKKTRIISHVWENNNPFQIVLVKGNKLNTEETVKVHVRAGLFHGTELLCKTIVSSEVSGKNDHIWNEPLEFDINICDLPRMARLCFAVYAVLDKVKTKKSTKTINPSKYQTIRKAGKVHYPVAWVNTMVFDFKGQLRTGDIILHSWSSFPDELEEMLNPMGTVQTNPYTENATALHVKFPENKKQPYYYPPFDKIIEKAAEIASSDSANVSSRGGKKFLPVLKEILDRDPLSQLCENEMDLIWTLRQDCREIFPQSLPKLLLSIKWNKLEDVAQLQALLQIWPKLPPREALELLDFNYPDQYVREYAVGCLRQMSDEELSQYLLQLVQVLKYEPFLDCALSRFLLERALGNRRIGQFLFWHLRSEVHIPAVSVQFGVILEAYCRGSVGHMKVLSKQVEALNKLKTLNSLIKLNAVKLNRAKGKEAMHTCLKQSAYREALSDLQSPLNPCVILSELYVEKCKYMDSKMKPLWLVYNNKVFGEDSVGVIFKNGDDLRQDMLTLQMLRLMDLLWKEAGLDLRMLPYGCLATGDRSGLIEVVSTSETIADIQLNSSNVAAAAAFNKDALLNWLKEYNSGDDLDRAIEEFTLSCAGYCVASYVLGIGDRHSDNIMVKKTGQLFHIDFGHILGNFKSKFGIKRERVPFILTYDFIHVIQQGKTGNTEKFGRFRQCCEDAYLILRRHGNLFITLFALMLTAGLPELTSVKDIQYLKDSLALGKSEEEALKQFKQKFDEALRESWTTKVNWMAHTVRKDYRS
PI3K δ, sequence (O00329 whole entry): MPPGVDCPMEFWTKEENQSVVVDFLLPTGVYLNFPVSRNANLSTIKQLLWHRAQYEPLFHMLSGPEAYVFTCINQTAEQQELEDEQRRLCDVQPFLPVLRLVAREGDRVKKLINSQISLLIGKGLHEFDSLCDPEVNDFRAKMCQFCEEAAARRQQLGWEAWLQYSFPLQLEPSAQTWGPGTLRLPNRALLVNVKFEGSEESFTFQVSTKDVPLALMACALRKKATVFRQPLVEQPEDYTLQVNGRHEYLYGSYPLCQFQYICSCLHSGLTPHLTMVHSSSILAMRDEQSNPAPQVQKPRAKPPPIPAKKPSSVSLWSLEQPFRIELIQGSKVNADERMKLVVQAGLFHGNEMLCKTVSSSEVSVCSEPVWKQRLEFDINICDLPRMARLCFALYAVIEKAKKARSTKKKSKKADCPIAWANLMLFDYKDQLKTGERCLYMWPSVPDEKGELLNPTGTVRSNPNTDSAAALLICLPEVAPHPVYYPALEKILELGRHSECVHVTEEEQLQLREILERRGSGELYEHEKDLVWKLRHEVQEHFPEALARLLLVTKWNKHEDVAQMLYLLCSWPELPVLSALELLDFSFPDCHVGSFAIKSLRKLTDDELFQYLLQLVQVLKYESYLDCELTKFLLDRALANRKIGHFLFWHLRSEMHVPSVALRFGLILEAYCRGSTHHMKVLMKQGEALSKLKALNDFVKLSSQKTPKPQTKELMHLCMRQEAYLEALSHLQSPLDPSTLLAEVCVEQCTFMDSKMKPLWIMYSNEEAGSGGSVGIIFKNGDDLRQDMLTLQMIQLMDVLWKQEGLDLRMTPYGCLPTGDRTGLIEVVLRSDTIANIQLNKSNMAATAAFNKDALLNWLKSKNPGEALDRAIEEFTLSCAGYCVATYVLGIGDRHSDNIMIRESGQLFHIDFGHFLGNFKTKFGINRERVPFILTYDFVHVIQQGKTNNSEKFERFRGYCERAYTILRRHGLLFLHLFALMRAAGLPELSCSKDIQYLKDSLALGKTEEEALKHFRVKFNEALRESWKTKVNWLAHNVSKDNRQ
PI3K δ, sequence (P27986 whole entry partner): as the sequence (P27986 whole entry partner) above

SMILES	IC50 [1]	IC50 [2]	IC50 [3]	IC50 [4]
Cc1cccc2cc(C(C)Nc3ncnc4[nH]cnc34)n(C3CC3)c(=O)c12 (centres unmarked) [Compound 204]	< 0.1 µM	< 10 µM	< 1 µM	< 0.1 µM
Cc1cccc2cc(Cn3nc(I)c4c(N)ncnc43)n(C3CCC3)c(=O)c12 [Compound 105]	< 10 µM	> 10 µM	> 10 µM	< 0.1 µM
CCC(Nc1ncnc2[nH]cnc12)c1cc2cccc(C)c2c(=O)n1-c1ccccc1C (centres unmarked) [Compound 202]	< 1 µM	> 10 µM	< 10 µM	< 0.1 µM
Cc1cccc2cc(Cn3nc(-c4cnn(CCO)c4)c4c(N)ncnc43)n(-c3ccccc3F)c(=O)c12 [Compound 162]	< 1 µM	> 10 µM	> 10 µM	< 0.1 µM
Cc1cccc2cc(C(C)Nc3ncnc4[nH]cnc34)n(-c3c(F)cccc3F)c(=O)c12 (centres unmarked) [Compound 216]	< 1 µM	> 10 µM	> 10 µM	< 0.1 µM
Cc1ccccc1-n1c(Cn2nc(-c3ccc(O)cc3)c3c(N)ncnc32)cc2cccc(C)c2c1=O [Compound 36]	< 0.1 µM	> 10 µM	> 10 µM	< 1 µM
Cc1cccc2cc(Cn3nc(I)c4c(N)ncnc43)n(-c3ccccc3OCCN3CCOCC3)c(=O)c12 [Compound 103]	< 1 µM	> 10 µM	> 10 µM	< 0.1 µM
C[C@H](Nc1ncnc2[nH]cnc12)c1cc2cccc(Cl)c2c(=O)n1C1CC1 [Compound 270]	< 0.1 µM	< 1 µM	< 0.1 µM	< 0.1 µM
Cc1cccc2cc([C@H](C)Nc3ncnc4[nH]c(O)nc34)n(-c3ccccc3)c(=O)c12 [Compound 263]	> 10 µM	> 10 µM	> 10 µM	> 10 µM
Cc1cccc2cc(Cn3nc(C#C[C@@H](C)O)c4c(N)ncnc43)n(-c3ccccc3O)c(=O)c12 [Compound 91]	< 10 µM	> 10 µM	> 10 µM	< 0.1 µM
Cc1cccc2cc(C(C)Nc3ncnc4[nH]cnc34)n(C3CCC3)c(=O)c12 (centres unmarked) [Compound 215]	< 0.1 µM	> 10 µM	< 10 µM	< 0.1 µM
Cc1ccccc1-n1c(Cn2nc(-c3cccc(Cl)c3)c3c(N)ncnc32)cc2cccc(C)c2c1=O [Compound 39]	< 1 µM	> 10 µM	> 10 µM	< 10 µM
Cc1cccnc1-n1c(Cn2nc(-c3ccc(F)c(O)c3)c3c(N)ncnc32)cc2cccc(C)c2c1=O [Compound 68]	< 0.1 µM	> 10 µM	> 10 µM	< 0.1 µM
Cc1cccc2cc(Cn3nc(C#N)c4c(N)ncnc43)n(-c3ccccc3F)c(=O)c12 [Compound 169]	> 10 µM	> 10 µM	> 10 µM	< 0.1 µM
Cc1cccc2cc([C@H](C)Nc3ncnc4[nH]cc(F)c34)n(-c3ccccc3)c(=O)c12 [Compound 254]	< 0.1 µM	< 10 µM	< 0.1 µM	< 0.1 µM
Cc1cccc2cc([C@H](C)Nc3ncnc4[nH]cc(C(N)=O)c34)n(C3CC3)c(=O)c12 [Compound 287]	< 0.1 µM	< 1 µM	< 0.1 µM	< 0.1 µM
COc1ccccc1-n1c(Cn2nc(I)c3c(N)ncnc32)cc2cccc(C)c2c1=O [Compound 70]	< 1 µM	> 10 µM	> 10 µM	< 0.1 µM
CC(=O)Nc1nc2cc(-c3nn(Cc4cc5cccc(C)c5c(=O)n4-c4ccccc4)c4ncnc(N)c34)ccc2s1 [Compound 275]	< 1 µM	> 10 µM	> 10 µM	< 1 µM
C=Cc1nn(Cc2cc3cccc(C)c3c(=O)n2-c2ccccc2F)c2ncnc(N)c12 [Compound 179]	< 10 µM	> 10 µM	> 10 µM	< 1 µM
Cc1cccc2cc(Cn3nc(C(C)C)c4c(N)ncnc43)n(-c3ccccc3)c(=O)c12 [Compound 317]	> 10 µM	> 10 µM	> 10 µM	< 10 µM
Cc1cccc2cc(Cn3nc(-c4ccc(F)c(O)c4)c4c(N)ncnc43)n(C(C)C)c(=O)c12 [Compound 67]	< 0.1 µM	> 10 µM	< 10 µM	< 0.1 µM
Cc1ccccc1-n1c(Cn2nc(/C=C3/SC(=O)NC3=O)c3c(N)ncnc32)cc2cccc(C)c2c1=O [Compound 173]	< 0.1 µM	< 10 µM	< 10 µM	< 0.1 µM
C=Cc1nn(Cc2cc3cccc(C)c3c(=O)n2-c2ccccc2C)c2ncnc(N)c12 [Compound 180]	< 1 µM	> 10 µM	> 10 µM	< 0.1 µM
Cc1ccccc1-n1c(Cn2nc(-c3ccc(Cl)c(O)c3)c3c(N)ncnc32)cc2cccc(C)c2c1=O [Compound 23]	< 0.1 µM	> 10 µM	< 10 µM	< 0.1 µM

SMILES	IC50 [1]	IC50 [2]	IC50 [3]	IC50 [4]
Cc1ccccc1-n1c(Cn2nc(/C=C/C(N)=O)c3c(N)ncnc32)cc2cccc(C)c2c1=O [Compound 174]	< 0.1 µM	> 10 µM	< 10 µM	< 0.1 µM
Cc1cccc2cc([C@H](C)Nc3ncnc4[nH]cnc34)n(C3CCC3)c(=O)c12 [Compound 198]	< 0.1 µM	< 10 µM	< 10 µM	< 0.1 µM
Cc1cccc2cc(Cn3nc(-c4ccc(O)cc4)c4c(N)ncnc43)n(-c3ccccc3F)c(=O)c12 [Compound 46]	< 1 µM	> 10 µM	> 10 µM	< 10 µM
Cc1cccc2cc(Cn3nc(-c4cc(O)cc(F)c4)c4c(N)ncnc43)n(-c3ccccc3OCCN3CCOCC3)c(=O)c12 [Compound 108]	< 1 µM	< 10 µM	< 10 µM	< 0.1 µM
Cc1cccc2cc(Cn3nc(-c4cccc(O)c4)c4c(N)ncnc43)n(-c3ccccc3C(C)C)c(=O)c12 [Compound 82]	< 0.1 µM	> 10 µM	< 1 µM	< 0.1 µM
Cc1cccc2cc(Cn3nc(I)c4c(N)ncnc43)n(C(C)C)c(=O)c12 [Compound 60]	> 10 µM	> 10 µM	> 10 µM	< 0.1 µM
COc1cccc(-c2nn(Cc3cc4cccc(C)c4c(=O)n3-c3ccccc3C)c3ncnc(N)c23)c1 [Compound 106]	< 1 µM	> 10 µM	< 10 µM	< 1 µM
Cc1cccc2cc(Cn3nc(-c4cc(O)cc(F)c4)c4c(N)ncnc43)n(C(C)C)c(=O)c12 [Compound 66]	< 1 µM	< 10 µM	< 1 µM	< 0.1 µM
COc1cc(-c2nn(Cc3cc4cccc(C)c4c(=O)n3-c3ccccc3C)c3ncnc(N)c23)ccc1Cl [Compound 21]	< 0.1 µM	> 10 µM	> 10 µM	< 1 µM
Cc1cccc2cc(Cn3nc(I)c4c(N)ncnc43)n(C3CCCCC3)c(=O)c12 [Compound 87]	< 0.1 µM	> 10 µM	> 10 µM	< 1 µM
CCc1ccccc1-n1c(Cn2nc(-c3cccc(O)c3)c3c(N)ncnc32)cc2cccc(C)c2c1=O [Compound 88]	< 0.1 µM	> 10 µM	> 10 µM	< 0.1 µM
Cc1cccc2cc(Cn3nc(-c4ccc(O)c(Cl)c4)c4c(N)ncnc43)n(-c3ccccc3F)c(=O)c12 [Compound 26]	< 0.1 µM	> 10 µM	> 10 µM	< 1 µM
CC(=O)Nc1nc2ccc(-c3nn(Cc4cc5cccc(C)c5c(=O)n4-c4ccccc4C)c4ncnc(N)c34)cc2o1 [Compound 266]	< 0.1 µM	> 10 µM	> 10 µM	< 0.1 µM
Cc1cccc2cc(C(C)Nc3nc(N)nc4[nH]cnc34)n(-c3ccccc3)c(=O)c12 (centres unmarked) [Compound 320]	< 0.1 µM	< 1 µM	< 0.1 µM	< 0.1 µM
Cc1cccc2cc(Cn3nc(I)c4c(N)ncnc43)n(C3CC3)c(=O)c12 [Compound 86]	< 0.1 µM	< 10 µM	< 10 µM	< 0.1 µM
Cc1cccc2cc(C(C)Nc3ncnc4[nH]cnc34)n(C3CCN(C)CC3)c(=O)c12 (centres unmarked) [Compound 227]	> 10 µM	> 10 µM	< 1 µM	< 0.1 µM
Cc1cccc2cc(Cn3nc(-c4cccc(O)c4)c4c(N)ncnc43)n(-c3ccccc3)c(=O)c12 [Compound 146]	< 0.1 µM	> 10 µM	> 10 µM	< 0.1 µM
Cc1cccc2cc(Cn3nc(-c4cc(O)cc(F)c4)c4c(N)ncnc43)n(-c3ccccc3Cl)c(=O)c12 [Compound 97]	< 0.1 µM	< 10 µM	< 1 µM	< 0.1 µM
Cc1cccc2cc(Cn3nc(-c4cccc(O)c4)c4c(N)ncnc43)n(C(C)C)c(=O)c12 [Compound 62]	< 0.1 µM	> 10 µM	< 1 µM	< 0.1 µM
Cc1cccc2cc([C@H](C)Nc3ncnc4[nH]ccc34)n(-c3ccccc3)c(=O)c12 [Compound 247]	< 0.1 µM	> 10 µM	< 10 µM	< 0.1 µM
Cc1cccc2cc(Cn3nc(-c4cc(O)cc(F)c4)c4c(N)ncnc43)n(-c3ccccc3F)c(=O)c12 [Compound 3]	< 0.1 µM	< 10 µM	< 10 µM	< 0.1 µM
Cc1ccccc1-n1c(Cn2nc(C#CC3CC3)c3c(N)ncnc32)cc2cccc(C)c2c1=O [Compound 14]	< 1 µM	> 10 µM	> 10 µM	< 1 µM
Cc1ccccc1-n1c(Cn2nc(-c3ccc4nc(N)ncc4c3)c3c(N)ncnc32)cc2cccc(C)c2c1=O [Compound 150]	< 0.1 µM	< 0.1 µM	< 1 µM	< 0.1 µM
